Measurements reported in paper PMC7435657, “[^99mTc]Tc-DB1 Mimics with Different-Length PEG Spacers: Preclinical Comparison in GRPR-Positive Models” (Molecules, 2020).

Assays:
human GRPR = human GRPR (Homo sapiens, UniProt P30550); assay: biochemical
Protocol: Competition binding assays for DB7, DB13 and DB14 were performed in PC-3 cell membranes.
Competition binding experiments of DB7, […] against [^125 I][I-Tyr^4]BBN were conducted in PC-3 cell membranes. Increasing concentrations of tested peptide (10^−13–10^−5 M) were mixed with the radioligand (40,000 cpm per assay tube, at a 50 pM concentration) and the membrane homogenate in a total volume of 300 μL binding buffer (pH 7.4, 50 mM HEPES, 1% BSA, 5.5 mM MgCl2, 35 μM bacitracin). Triplicates of each concentration point were incubated for 60 min at 22 °C in an Incubator-Orbital Shaker unit (MPM Instr. SrI, Bernareggio, MI, Italy). The incubation was interrupted by adding ice-cold washing buffer (10 mM HEPES pH 7.4, 150 mM NaCl), followed by rapid filtration over glass fiber filters (Whatman GF/B, presoaked in binding buffer) on a Brandel Cell Harvester (Adi Hassel Ingenieur Büro, Munich, Germany). Filters were washed with cold washing buffer and were counted for their radioactivity content in an automated well-type gamma counter [NaI(Tl) 3″ crystal, Canberra Packard Cobra Quantum series instrument]. The 50% inhibitory concentration (IC50) values were calculated by nonlinear regression according to a one-site model applying the PRISM 6 program (Graph Pad Software, San Diego, CA, USA) and are expressed as mean ± SD of three experiments performed in triplicate.

PC-3 cells = assay: Radiotracer uptake (internalized + membrane bound) in PC-3 cells; format: cell-based, human; conditions: 1 h incubation at 37 °C, % of total added radioactivity, mean ± SD of 3 experiments
Protocol: The uptake of [^99mTc]Tc-DB7, [^99mTc]Tc-DB13, and [^99mTc]Tc-DB14 in PC-3 cells is compared in Figure 3. In all cases, the bulk of radioactivity was found on the membrane of PC-3 cells with only a small portion detected within the cells, consistent with a noninternalizing radioantagonist profile.
Figure 3 Specific uptake of [^99mTc]Tc-DB7 (pink bars), [^99mTc]Tc-DB13 (violet bars) and [^99mTc]Tc-DB14 (gray bars) in PC-3 cells after 1 h incubation at 37 °C (checkered bars: internalized, solid bars: membrane bound fractions); results represent the mean ± SD of 3 experiments performed in triplicate.
For internalization assays with [^99mTc]Tc-DB7, [^99mTc]Tc-DB13, and [^99mTc]Tc-DB14, PC-3 cells were seeded in six well plates (≈1 × 10^6 cells per well) 24 h before the experiment. […] Nonspecific internalization was determined by a parallel triplicate series containing 1 μM [Tyr^4]BBN. […] Sample radioactivity was measured on the gamma counter and the percentage, of specific internalized and membrane-bound fractions were calculated with Microsoft Excel (after subtracting nonspecific from overall internalized and membrane-bound counts). Results represent specific internalized ± SD of total added radioactivity per well from three experiments performed in triplicate.

Sequence of human GRPR (P30550 whole entry): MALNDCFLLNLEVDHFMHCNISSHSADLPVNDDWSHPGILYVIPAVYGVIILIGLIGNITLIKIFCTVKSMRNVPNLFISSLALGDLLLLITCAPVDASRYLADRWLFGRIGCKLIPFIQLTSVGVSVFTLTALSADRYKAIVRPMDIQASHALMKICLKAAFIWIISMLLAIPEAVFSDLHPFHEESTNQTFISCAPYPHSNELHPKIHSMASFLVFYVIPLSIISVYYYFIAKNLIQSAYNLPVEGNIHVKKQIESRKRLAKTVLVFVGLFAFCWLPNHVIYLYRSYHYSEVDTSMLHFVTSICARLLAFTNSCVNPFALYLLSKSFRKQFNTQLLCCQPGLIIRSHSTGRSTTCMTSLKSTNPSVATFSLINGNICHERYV

For CCNC(=O)[C@H](CC(C)C)NC(=O)[C@H](Cc1c[nH]cn1)NC(=O)CNC(=O)[C@@H](NC(=O)[C@H](C)NC(=O)[C@H](Cc1c[nH]c2ccccc12)NC(=O)[C@H](CCC(N)=O)NC(=O)[C@@H](Cc1ccccc1)NC(=O)COCCOCCNC(=O)C(CNCCN)CNCCN)C(C)C [DB7, [N4-PEGx-DPhe^6,Leu-NHEt^13]BBN(6-13)], the IC50 (human GRPR) was 0.93 ± 0.01 nM.

With CCNC(=O)[C@H](CC(C)C)NC(=O)[C@H](Cc1c[nH]cn1)NC(=O)CNC(=O)[C@@H](NC(=O)[C@H](C)NC(=O)[C@H](Cc1c[nH]c2ccccc12)NC(=O)[C@H](CCC(N)=O)NC(=O)[C@@H](Cc1ccccc1)NC(=O)CCOCCOCCOCCNC(=O)C(CNCCN)CNCCN)C(C)C [DB13, [N4-PEGx-DPhe^6,Leu-NHEt^13]BBN(6-13)] the IC50 (human GRPR) was 1.03 ± 0.01 nM.

In the case of CCNC(=O)[C@H](CC(C)C)NC(=O)[C@H](Cc1c[nH]cn1)NC(=O)CNC(=O)[C@@H](NC(=O)[C@H](C)NC(=O)[C@H](Cc1c[nH]c2ccccc12)NC(=O)[C@H](CCC(N)=O)NC(=O)[C@@H](Cc1ccccc1)NC(=O)CCOCCOCCOCCOCCNC(=O)C(CNCCN)CNCCN)C(C)C [DB14, [N4-PEGx-DPhe^6,Leu-NHEt^13]BBN(6-13)], the IC50 (human GRPR) is reported as 1.18 ± 0.09 nM.

In the case of “[^99mTc]Tc-[N4-PEGx-DPhe^6,Leu-NHEt^13]BBN(6-13) [[^99mTc]Tc-DB7]”, the Specific cell uptake (PC-3 cells) is reported as 2.6 ± 0.5%.
